Reference: PMC8312697, “Mechanistic Investigations Support Liver Safety of Ubrogepant” (Toxicological Sciences, 2020)
In brackets after ≈: the same amount, converted by molar mass. Read-outs that look alike come from different tables or passages of the source.

Experiments:
Clinical study exposures = type: in vivo, human
mouse = assay: Conventional nonclinical toxicology study, mouse
rats = assay: Conventional nonclinical toxicology study, rat; type: in vivo
Procedure: Conventional animal toxicology studies in rats and monkeys were performed by Merck & Co, Inc (West Point, Pennsylvania).

[1] = tested on: clinical trial participants; design: cases of ALT or AST ≥ 3× ULN: unit not given here; details: cited from earlier work
MRP3 = target: T1, MRP3 (Homo sapiens, UniProt O15438); assay: MRP3 vesicular transport inhibition assay; type: biochemical; details: for inhibition of MRP3-mediated probe substrate transport: vesicular transport inhibition assay
T1 construct: Solvo Biotechnology (Szeged, Hungary), contract laboratory that ran the assay
T1 sequence (O15438 whole entry): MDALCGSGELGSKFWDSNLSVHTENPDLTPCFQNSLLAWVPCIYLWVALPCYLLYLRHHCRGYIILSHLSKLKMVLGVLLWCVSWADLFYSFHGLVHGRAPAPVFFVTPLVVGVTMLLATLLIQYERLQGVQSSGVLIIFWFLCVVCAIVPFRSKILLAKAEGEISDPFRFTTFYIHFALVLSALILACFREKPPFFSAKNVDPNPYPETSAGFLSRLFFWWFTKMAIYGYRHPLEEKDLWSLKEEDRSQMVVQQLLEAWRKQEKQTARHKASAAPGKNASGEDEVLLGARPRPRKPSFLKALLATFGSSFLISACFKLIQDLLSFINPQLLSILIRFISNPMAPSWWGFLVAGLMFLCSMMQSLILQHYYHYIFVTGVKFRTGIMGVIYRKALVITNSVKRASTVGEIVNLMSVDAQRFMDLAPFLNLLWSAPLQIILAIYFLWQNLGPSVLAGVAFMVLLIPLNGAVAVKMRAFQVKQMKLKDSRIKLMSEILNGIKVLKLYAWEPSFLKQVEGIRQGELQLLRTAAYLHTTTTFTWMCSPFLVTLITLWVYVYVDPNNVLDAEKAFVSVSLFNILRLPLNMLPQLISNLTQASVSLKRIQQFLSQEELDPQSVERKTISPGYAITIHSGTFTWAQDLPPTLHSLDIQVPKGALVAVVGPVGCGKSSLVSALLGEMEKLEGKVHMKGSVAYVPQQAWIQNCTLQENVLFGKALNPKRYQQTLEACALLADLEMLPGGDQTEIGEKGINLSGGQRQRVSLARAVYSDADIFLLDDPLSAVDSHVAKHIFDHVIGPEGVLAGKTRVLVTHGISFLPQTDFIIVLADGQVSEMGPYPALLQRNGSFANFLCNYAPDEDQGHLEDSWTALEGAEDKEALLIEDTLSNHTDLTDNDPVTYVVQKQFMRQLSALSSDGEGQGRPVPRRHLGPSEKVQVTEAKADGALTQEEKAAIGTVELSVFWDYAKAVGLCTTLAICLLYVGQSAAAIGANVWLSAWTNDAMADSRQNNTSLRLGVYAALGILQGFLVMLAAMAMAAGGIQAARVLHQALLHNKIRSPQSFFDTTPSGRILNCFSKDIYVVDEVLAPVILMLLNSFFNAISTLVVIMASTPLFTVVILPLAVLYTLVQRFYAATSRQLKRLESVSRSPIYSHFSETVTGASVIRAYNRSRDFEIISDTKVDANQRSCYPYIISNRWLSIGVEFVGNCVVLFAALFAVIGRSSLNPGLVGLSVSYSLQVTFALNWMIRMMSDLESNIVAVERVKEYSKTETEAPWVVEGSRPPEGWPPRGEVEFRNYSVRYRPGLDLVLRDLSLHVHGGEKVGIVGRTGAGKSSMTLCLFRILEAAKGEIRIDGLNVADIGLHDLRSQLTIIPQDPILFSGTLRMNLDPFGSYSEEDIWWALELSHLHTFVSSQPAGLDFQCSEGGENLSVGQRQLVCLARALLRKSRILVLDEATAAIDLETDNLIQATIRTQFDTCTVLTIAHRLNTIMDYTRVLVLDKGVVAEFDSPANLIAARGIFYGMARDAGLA
Procedure: (§1) To assess the functional impact of ubrogepant on the human ABC efflux transporters BSEP, MRP3, and MRP4, in vitro vesicular transport inhibition assays were conducted by Solvo Biotechnology (Szeged, Hungary). The ability of ubrogepant to inhibit the BSEP-mediated transport (and accumulation) of a probe substrate was tested at concentrations ranging from 0.04 – 30 μM, where the latter defined the upper limit of compound solubility in the BSEP assay buffer. For the MRP3 and MRP4 vesicle-based transporter assessments, ubrogepant concentrations of 0.1 to 70 μM were used. To assess the functional impact of ubrogepant on the human SLC (uptake) transporter NTCP, in vitro experiments were performed using HEK293 cells stably expressing NTCP. The ability of ubrogepant to inhibit NTCP-mediated uptake (and accumulation) of taurocholate was tested at concentrations ranging from 0.04 – 30 μM.
(§2) To assess the functional impact of MK-3207 on the human ABC efflux transporters BSEP, MRP3 and MRP4, in vitro vesicular transport inhibition assays were conducted by Solvo Biotechnology (Szeged, Hungary) and overseen by DSSI. BSEP transport was assessed in the presence of 0.5-30 µM MK-3207; MRP3 and MRP4 transport was assessed in the presence of 0.11-80 µM MK-3207. The upper limits of these ranges were determined by compound solubility in each assay buffer. NTCP transporter inhibition was assessed in NTCP-expressing HEK293 cells in the presence of 0.03 – 25 µM MK-3207.
IC50 values for MK-3207 were calculated for each of the transporters; these values were used as inputs into DILIsym. It was assumed that inhibition type for MK-3207 for MRP3 and MRP4 was mixed with α= 5; this is a typical value for bile acid transporter inhibitors in the experience of the DSS team.

RNS/ROS production = assay: DILIsym fit of ROS data (oxidative stress parameter); design: species or system human; details: fit of 24-hour HepG2 ROS data
From the text: Parameter values for telcagepant-mediated induction of oxidative stress were identified by simulating the experimental data in DILIsym® using a DILIsym® dosing scheme meant to represent in vitro conditions.
Parameter values for ubrogepant-mediated induction of oxidative stress were identified by simulating the experimental data in DILIsym using a DILIsym drug exposure scheme designed to represent in vitro conditions.
Parameter values for MK-3207-mediated induction of oxidative stress were identified by simulating the experimental data in DILIsym using a DILIsym drug exposure scheme meant to represent in vitro conditions. Intracellular compound concentrations were also assayed in identical cell cultures; the experimental method was the same as that described above for ubrogepant.

[2] = Compound solubility limit in transporter assay buffer; type: physicochemical; details: read-out: upper limit of compound solubility
Procedure: as §1, §2

[3] = tested on: Nrf2 electrophilic stress and Nrf1 proteasomal stress pathways; assay: In vivo rat liver gene expression bioactivation liver response assay (BA-LRA); details: for maximum liver safe daily dose predicted from BA-LRA: human daily dose projected from rat BA-LRA score; for upregulation of pathways associated with electrophilic and proteasomal stress: rat liver gene expression studies; for BA-LRA score: also presented in Monroe et al., 2018
From the text: A prediction of a clinical daily dose burden associated with reactive metabolite-mediated DILI potential was derived from a focused and integrated quantitative rat liver molecular gene expression signature optimized predominantly for Nrf2 electrophilic stress and Nrf1 proteasomal stress pathways to describe a bioactivation liver response assay (BA-LRA) result. […] The clinical dose is identified that projects DILI risk to exceed the optimized threshold calculation for each BA-LRA result.

BSEP = target: T2, BSEP (Homo sapiens, UniProt O95342); assay: BSEP vesicular transport inhibition assay; type: biochemical; details: for Vmax of taurocholate: BSEP vesicle assay; for BSEP inhibition type: from Km and Vmax changes / model fit; for inhibition of BSEP-mediated probe substrate transport: vesicular transport inhibition assay; for alpha (mixed inhibition model): BSEP
T2 construct: Solvo Biotechnology (Szeged, Hungary), contract laboratory that ran the assay
T2 sequence (O95342 whole entry): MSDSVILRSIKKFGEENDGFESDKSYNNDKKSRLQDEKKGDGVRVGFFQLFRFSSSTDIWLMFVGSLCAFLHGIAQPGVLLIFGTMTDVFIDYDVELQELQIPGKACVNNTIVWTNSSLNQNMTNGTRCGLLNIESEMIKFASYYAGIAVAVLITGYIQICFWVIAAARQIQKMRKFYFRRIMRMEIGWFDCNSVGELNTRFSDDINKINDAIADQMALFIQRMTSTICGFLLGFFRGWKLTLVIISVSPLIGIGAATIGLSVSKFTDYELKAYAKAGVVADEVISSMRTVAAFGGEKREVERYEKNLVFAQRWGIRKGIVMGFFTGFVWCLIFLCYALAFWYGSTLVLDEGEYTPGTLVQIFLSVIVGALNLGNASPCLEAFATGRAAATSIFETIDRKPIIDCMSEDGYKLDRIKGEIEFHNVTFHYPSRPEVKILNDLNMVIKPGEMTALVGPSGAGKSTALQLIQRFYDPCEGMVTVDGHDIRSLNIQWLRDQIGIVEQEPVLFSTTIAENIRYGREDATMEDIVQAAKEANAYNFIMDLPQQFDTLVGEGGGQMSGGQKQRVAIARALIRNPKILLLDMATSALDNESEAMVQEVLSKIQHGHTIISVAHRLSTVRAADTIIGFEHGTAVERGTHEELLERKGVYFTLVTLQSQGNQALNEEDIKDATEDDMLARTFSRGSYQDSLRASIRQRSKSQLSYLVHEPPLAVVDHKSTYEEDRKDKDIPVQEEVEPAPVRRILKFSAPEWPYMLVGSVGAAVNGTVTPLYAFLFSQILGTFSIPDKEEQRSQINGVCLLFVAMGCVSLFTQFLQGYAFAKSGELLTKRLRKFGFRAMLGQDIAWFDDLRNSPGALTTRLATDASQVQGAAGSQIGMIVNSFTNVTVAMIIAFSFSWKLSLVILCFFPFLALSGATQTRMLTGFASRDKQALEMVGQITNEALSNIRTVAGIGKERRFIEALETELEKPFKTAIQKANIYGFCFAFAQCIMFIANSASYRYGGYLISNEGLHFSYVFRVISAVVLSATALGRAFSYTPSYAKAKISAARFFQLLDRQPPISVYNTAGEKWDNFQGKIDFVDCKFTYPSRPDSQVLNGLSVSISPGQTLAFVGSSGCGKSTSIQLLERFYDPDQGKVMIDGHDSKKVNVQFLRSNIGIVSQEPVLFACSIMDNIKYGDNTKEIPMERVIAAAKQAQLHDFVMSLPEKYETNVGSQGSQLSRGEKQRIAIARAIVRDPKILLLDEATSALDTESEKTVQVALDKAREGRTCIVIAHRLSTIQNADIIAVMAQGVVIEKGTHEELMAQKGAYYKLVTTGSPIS
Procedure: These assays were conducted by Solvo Biotechnology and overseen by DSSI.
as §1
In the current project, additional assays were conducted to determine the Ki value and inhibition type for ubrogepant for BSEP-mediated bile acid transport. These assays were conducted by Solvo Biotechnology and overseen by DSSI. Briefly, BSEP inhibition studies were performed with multiple substrate concentrations (0.39 – 50 µM taurocholate) and multiple inhibitor concentrations (0.5 – 30 µM ubrogepant). Ki and inhibition type for ubrogepant were determined by fitting a mixed inhibition model to the untransformed data by nonlinear regression analysis. It was assumed that inhibition type for ubrogepant for other transporters (i.e., MRP3 and MRP4) was mixed with α= 5; this is a typical value for bile acid transporter inhibitors in the experience of the DSS team.
as §2
In these experiments, taurocholic acid (TCA) transport was assessed at a range of MK-3207 concentrations (0.04 – 30 µM) as well as at a range of TCA media concentrations (0.39 – 50 µM). A Ki was then determined by fitting a mixed inhibition model to the inhibition data by nonlinear regression analysis.

[4] = among the 5 patients with ALT > 3-fold ULN at > 500 mg daily, ref Hargreaves and Olesen, 2019, Hewitt et al., 2011
[5] = MRP3 and MRP4 assay buffer, aqueous buffer
[6] = curve fitting assuming maximum inhibition at higher concentrations is 100%, read-out: MRP3 estimated lowest possible IC50
[7] = mixed inhibition model, nonlinear regression

SMILES | Pivotal conventional nonclinical toxicology study liver findings (mouse; 6M mouse) | exposure margin (mouse; 6M mouse) [×] | Pivotal conventional nonclinical toxicology study liver findings (rats; 6M rat) | exposure margin (rats; 6M rat) [×] | inhibition of MRP3-mediated probe substrate transport (MRP3) | RNS/ROS production rate constant (RNS/ROS production) | solubility [2, 5] [µM] | maximum liver safe daily dose predicted from BA-LRA [3] [mg] | upregulation of pathways associated with electrophilic and proteasomal stress [3] | Vmax of taurocholate (BSEP; inhibitor 0.5 µM) [pmol/mg protein/min] | Vmax of taurocholate (BSEP; inhibitor 2.5 µM) [pmol/mg protein/min] | Vmax of taurocholate (BSEP; inhibitor 5 µM) [pmol/mg protein/min] | Vmax of taurocholate (BSEP; inhibitor 15 µM) [pmol/mg protein/min] | Vmax of taurocholate (BSEP; inhibitor 30 µM) [pmol/mg protein/min] | BSEP inhibition type (BSEP) | inhibition of BSEP-mediated probe substrate transport (BSEP) | IC50 (MRP3; [6]) [µM] | alpha (mixed inhibition model) (BSEP; mixed inhibition model) | Ki (BSEP; [7]) [µM] | also measured
O=C(CN1C(=O)C2(CCCC2)NC[C@H]1c1cc(F)cc(F)c1)Nc1ccc2c(c1)C[C@@]1(C2)C(=O)Nc2ncccc21 [MK-3207] | no liver safety signal | 12 | no liver safety signal | 25 | inhibited | 0.00022 mL/nmol/h | 80 (≈ 44.6 µg/mL) | 300 | upregulated pathways associated with electrophilic and proteasomal stress | 171.9 | 183.1 | 174.9 | 132.5 | 151.7 | competitive model is presumed to be the most likely mode of inhibition | inhibited | – | – | – | clinical study exposure (mean) (Clinical study exposures; Phase 2, 900 mg daily): b Phase 2 clinical study exposures based on mean of 60 μM/h at dose of 900 mg daily; original projected daily dose was 80 mg.; patients symptomatic with Hy’s law [1, 4]: 1; patients with > 20-fold ALT rises [1, 4]: 3; Clinical ALT > 3× ULN ([1]; daily doses > 500 mg, individuals dosed for more than 1 week, most responding given 600–900 mg per day, ref Hargreaves and Olesen, 2019, Hewitt et al., 2011): 42% (5/12) among individuals dosed for more than 1 week; most responding were given 600–900 mg per day; ALT > 3-fold ULN after 2 weeks ([1]; daily doses of < 100 mg, ref Hargreaves and Olesen, 2019, Hewitt et al., 2011): 1%; IC50 (MRP3; used as basolateral transporter inhibition constant, read-out: MRP3 calculated IC50): 49.9 µM; solubility ([2]; BSEP assay buffer): 30 µM (≈ 16.7 µg/mL); BA-LRA score ([3]; rat liver, 600 mg/kg/day × 4 days): 0.34; Ki (BSEP; competitive inhibition model): 7.62 µM
O=C(N[C@@H]1CC[C@@H](c2cccc(F)c2F)CN(CC(F)(F)F)C1=O)N1CCC(n2c(=O)[nH]c3ncccc32)CC1 [Telcagepant] | < 2× ALT/AST with no liver histopathology | 14 | no liver safety signal | 7 | inhibited | 20,000 mL/mol/hr | – | < 600 | upregulated pathways associated with electrophilic and proteasomal stress | – | 186.3 | 208.1 | – | – | likely to be a mixed BSEP inhibitor | inhibited | ≥ 16.6 | 4.6 | 7.9 | clinical study exposure (mean) (Clinical study exposures; Phase 3, 280 mg BID (2 h apart)): a Phase 3 clinical study exposures based on mean of 70 μM/h at dose of 280 mg BID (2 h apart).; Pivotal conventional nonclinical toxicology study liver findings (rats; 3M rat): < 3× ALT/AST with no liver histopathology; exposure margin (rats; 3M rat): 15 ×; Clinical ALT > 3× ULN ([1]; 140 mg BID 12 weeks, ref Ho et al., 2014): 1.9% (5/258) ([Ho et al., 2014]); Clinical ALT > 3× ULN ([1]; 140 mg BID 12 weeks, ref Ho et al., 2014, listed as telcagepant): 1.9%; Clinical ALT > 3× ULN ([1]; 280 mg BID 12 weeks, ref Ho et al., 2014): 3.2%; inhibition at 20 µM (MRP3; human, membrane vesicles with MRP3 (vesicular transport assay), read-out: maximum inhibition at the highest concentration tested, MRP3): < 50%; solubility ([2]; aqueous buffer, BSEP, MRP3, MRP4 vesicular transport assays): 20 µM (≈ 11.3 µg/mL); BA-LRA score ([3]; rat liver, 400 mg/kg/day × 4 days, evidence of transcriptional suppression): 0.30; Vmax of taurocholate (BSEP; inhibitor 10 µM): 77.52 pmol/mg protein/min; Vmax of taurocholate (BSEP; inhibitor 20 µM): 119.7 pmol/mg protein/min; IC50 (BSEP; vesicular transport, taurocholate, read-out: BSEP estimated IC50): 10.2 µM; BSEP inhibition (BSEP; vesicular transport, up to 20 µM): > 50%
C[C@@H]1[C@H](c2ccccc2)C[C@H](NC(=O)c2cnc3c(c2)C[C@@]2(C3)C(=O)Nc3ncccc32)C(=O)N1CC(F)(F)F [Ubrogepant] | – | – | < 2× ALT with no liver histopathology | 70 | inhibited | 0.00016 mL/nmol/h | 70 (≈ 38.5 µg/mL) | – | did not | 181.3 | 175.6 | 171.3 | 171.9 | 172.3 | likely to be a mixed BSEP inhibitor | inhibited | ≥ 85.9 | 8.39 | 38.1 | clinical study exposure (Clinical study exposures; Phase 3, 100 mg QD): c Phase 3 clinical study exposures based on 2 μM/h at dose of 100 mg QD.; Pivotal conventional nonclinical toxicology study liver findings (mouse; 3M mouse): no liver safety signal; exposure margin (mouse; 3M mouse): 80 ×; ALT/AST ≥ 3-fold ULN, number of participants ([1]; 100 mg QD 2 days on, 2 days placebo, alternating, 8 weeks, healthy adults, n = 256, ref Goadsby et al., 2019): 2; cases of ALT or AST ≥ 3× ULN ([1]; 52-week long-term extension trial, 1230 people, ref Ailani et al., 2019): 20; inhibition at 70 µM (MRP3; human, membrane vesicles with MRP3 (vesicular transport assay), 70 µM (solubility limit), read-out: maximum inhibition at the highest concentration tested, MRP3): < 50%; solubility ([2]; BSEP assay buffer, aqueous buffer): 30 µM (≈ 16.5 µg/mL); BA-LRA response ([3]; rat liver, 7 days with 750 mg/kg): No BA-LRA response
